Measured values reported in patent publication US8815864B2, “Indanyloxydihydrobenzofuranylacetic acids” (Boehringer Ingelheim International GmbH, priority 2012, dated 2014).

Target: human GPR40 receptor (Homo sapiens, UniProt O14842)
Experiment: IP1 accumulation measurements using the IPOne assay system
Format: cell-based
Details: 1321N1 cells stably expressing human GPR40; stimulation 1 h at 37° C.
Protocol: IP1 accumulation measurements using the IPOne assay system—1321N1 cells stably expressing human GPR40 receptor (Euroscreen, Belgium) are seeded 24 h before the assay in white 384-well plates in culture medium containing 10% FCS, 1% Na-Pyruvate and 400 μg/mL G418. IP1 is assayed according to the manufacturer's description (Cisbio Bioassays, France). In brief, the assay is started by substitution of the culture medium by stimulation buffer (Hepes 10 mM, CaCl2 1 mM, MgCl2 0.5 mM, KCl 4.2 mM, NaCl 146 mM, glucose 5.5 mM and LiCl 50 mM, pH 7.4). Cells are stimulated for 1 h at 37° C., 5% CO2 by addition of the compounds that are diluted in stimulation buffer containing LiCl. Assays are stopped by adding HTRF-conjugates (IP1-d2 and Anti-IP1 cryptate Tb) and lysis buffer, provided by the manufacturer. After an incubation time of 1 h at room temperature plates are measured using an EnVision™, Perkin Elmer. The obtained fluorescence ratios at 665/615 […] are then used to calculate the pEC50 values using Assay Explorer 3.3 Software (Accelrys, Inc.) by interpolation using an IP1 reference curve and subsequent sigmoidal curve fitting allowing for a variable hill slope.

human GPR40 receptor, sequence (O14842 whole entry): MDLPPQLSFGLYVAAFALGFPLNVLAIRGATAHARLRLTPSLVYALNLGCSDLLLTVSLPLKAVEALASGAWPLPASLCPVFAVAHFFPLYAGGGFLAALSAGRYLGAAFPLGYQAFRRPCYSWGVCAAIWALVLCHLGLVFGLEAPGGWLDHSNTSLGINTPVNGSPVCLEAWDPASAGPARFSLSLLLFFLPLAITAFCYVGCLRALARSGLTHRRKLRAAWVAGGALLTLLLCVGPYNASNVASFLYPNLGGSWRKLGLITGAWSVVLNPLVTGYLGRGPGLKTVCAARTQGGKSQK

Structure (SMILES) | EC50 [µM]
Cc1cccc(Oc2ccc(F)c3c2CC[C@H]3Oc2ccc3c(c2)OC[C@H]3CC(=O)O)n1 [Example 15, {(S)-6-[(R)-7-Fluoro-4-(6-methyl-pyrid-2-yloxy)-indan-1-yloxy]-2,3-dihydro-benzofuran-3-yl}-acetic acid] | 0.031
Cn1ncc2ccc(Oc3ccc(F)c4c3CC[C@H]4Oc3ccc4c(c3)OC[C@H]4CC(=O)O)cc21 [Example 46, {(S)-6-[(R)-7-Fluoro-4-(1-methyl-1H-indazol-6-yloxy)-indan-1-yloxy]-2,3-dihydro-benzofuran-3-yl}-acetic acid] | 0.003
N#Cc1cc(F)c(Oc2ccc(F)c3c2CC[C@H]3Oc2ccc3c(c2)OC[C@H]3CC(=O)O)c(F)c1 [Example 51, {(S)-6-[(R)-4-(4-cyano-2,6-difluoro-phenoxy)-7-fluoro-indan-1-yloxy]-2,3-dihydro-benzofuran-3-yl}-acetic acid] | 0.018
N#Cc1ccc(Oc2ccc(F)c3c2CC[C@H]3Oc2ccc3c(c2)OC[C@H]3CC(=O)O)c(C#N)c1 [Example 41, {(S)-6-[(R)-4-(2,4-Dicyano-phenoxy)-7-fluoro-indan-1-yloxy]-2,3-dihydro-benzofuran-3-yl}-acetic acid] | 0.017
Cc1ccccc1Oc1ccc(F)c2c1CC[C@H]2Oc1ccc2c(c1)OC[C@H]2CC(=O)O [Example 4, {(S)-6-[(R)-7-Fluoro-4-(2-methyl-phenoxy)-indan-1-yloxy]-2,3-dihydro-benzofuran-3-yl}-acetic acid] | 0.006
Cn1ncc2cc(Oc3ccc(F)c4c3CC[C@H]4Oc3ccc4c(c3)OC[C@H]4CC(=O)O)ccc21 [Example 45, {(S)-6-[(R)-7-Fluoro-4-(1-methyl-1H-indazol-5-yloxy)-indan-1-yloxy]-2,3-dihydro-benzofuran-3-yl}-acetic acid] | 0.007
Cn1cnc2cc(Oc3ccc(F)c4c3CC[C@H]4Oc3ccc4c(c3)OC[C@H]4CC(=O)O)ccc21 [Example 42, {(S)-6-[(R)-7-Fluoro-4-(1-methyl-1H-benzoimidazol-5-yloxy)-indan-1-yloxy]-2,3-dihydro-benzofuran-3-yl}-acetic acid] | 0.891
O=C(O)C[C@@H]1COc2cc(O[C@@H]3CCc4c(Oc5ccc(C(F)(F)F)cn5)ccc(F)c43)ccc21 [Example 14, {(S)-6-[(R)-7-Fluoro-4-(5-trifluoromethyl-pyrid-2-yloxy)-indan-1-yloxy]-2,3-dihydro-benzofuran-3-yl}-acetic acid] | 0.026
COc1cccc(Oc2ccc(F)c3c2CC[C@H]3Oc2ccc3c(c2)OC[C@H]3CC(=O)O)c1 [Example 2, {(S)-6-[(R)-7-Fluoro-4-(3-methoxy-phenoxy)-indan-1-yloxy]-2,3-dihydro-benzofuran-3-yl}-acetic acid] | 0.006
Cc1noc2cc(Oc3ccc(F)c4c3CC[C@H]4Oc3ccc4c(c3)OC[C@H]4CC(=O)O)ccc12 [Example 61, {(S)-6-[(R)-7-Fluoro-4-(3-methyl-benzo[d]isoxazol-6-yloxy)-indan-1-yloxy]-2,3-dihydro-benzofuran-3-yl}-acetic acid] | 0.003
O=C(O)C[C@@H]1COc2cc(O[C@@H]3CCc4c(Oc5ccccc5)ccc(F)c43)ccc21 [Example 1, {(S)-6-[(R)-7-Fluoro-4-phenoxy-indan-1-yloxy]-2,3-dihydro-benzofuran-3-yl}-acetic acid] | 0.004
O=C(O)C[C@@H]1COc2cc(O[C@@H]3CCc4c(Oc5nc6ccccc6s5)ccc(F)c43)ccc21 [Example 12, {(S)-6-[(R)-4-Benzothiazol-2-yloxy-7-fluoro-indan-1-yloxy]-2,3-dihydro-benzofuran-3-yl}-acetic acid] | 0.012
O=C(O)C[C@@H]1COc2cc(O[C@@H]3CCc4c(Oc5cccc6cccnc56)ccc(F)c43)ccc21 [Example 39, {(S)-6-[(R)-7-Fluoro-4-(Quinolin-8-yloxy)-indan-1-yloxy]-2,3-dihydro-benzofuran-3-yl}-acetic acid] | 0.021
N#Cc1ccccc1Oc1ccc(F)c2c1CC[C@H]2Oc1ccc2c(c1)OC[C@H]2CC(=O)O [Example 17, {(S)-6-[(R)-4-(2-Cyano-phenoxy)-7-fluoro-indan-1-yloxy]-2,3-dihydro-benzofuran-3-yl}-acetic acid] | 0.004
Cc1c(Oc2ccc(F)c3c2CC[C@H]3Oc2ccc3c(c2)OC[C@H]3CC(=O)O)ccc2c1cnn2C [Example 53, {(S)-6-[(R)-7-Fluoro-4-(1,4-dimethyl-1H-indazol-5-yloxy)-indan-1-yloxy]-2,3-dihydro-benzofuran-3-yl}-acetic acid] | 0.069
COc1ccc(Oc2ccc(F)c3c2CC[C@H]3Oc2ccc3c(c2)OC[C@H]3CC(=O)O)nn1 [Example 16, {(S)-6-[(R)-7-Fluoro-4-(6-methoxy-pyridazin-3-yloxy)-indan-1-yloxy]-2,3-dihydro-benzofuran-3-yl}-acetic acid] | 0.138

Structure (SMILES) | EC50 [µM]
O=C(O)C[C@@H]1COc2cc(O[C@@H]3CCc4c(Oc5ccc(CO)c(F)c5)ccc(F)c43)ccc21 [Example 28, {(S)-6-[(R)-7-Fluoro-4-(3-fluoro-4-hydroxymethyl-phenoxy)-indan-1-yloxy]-2,3-dihydro-benzofuran-3-yl}-acetic acid] | 0.008
O=C(O)C[C@@H]1COc2cc(O[C@@H]3CCc4c(Oc5ccc(OC(F)F)cn5)ccc(F)c43)ccc21 [Example 25, {(S)-6-[(R)-4-(5-Difluoromethoxy-pyrid-2-yloxy)-7-fluoro-indan-1-yloxy]-2,3-dihydro-benzofuran-3-yl}-acetic acid] | 0.013
O=C(O)C[C@@H]1COc2cc(O[C@@H]3CCc4c(Oc5ccccn5)ccc(F)c43)ccc21 [Example 7, {(S)-6-[(R)-7-Fluoro-4-pyrid-2-yloxy-indan-1-yloxy]-2,3-dihydro-benzofuran-3-yl}-acetic acid] | 0.032
Cn1ccc2cc(Oc3ccc(F)c4c3CC[C@H]4Oc3ccc4c(c3)OC[C@H]4CC(=O)O)ccc21 [Example 38, {(S)-6-[(R)-7-Fluoro-4-(1-methyl-1H-indol-5-yloxy)-indan-1-yloxy]-2,3-dihydro-benzofuran-3-yl}-acetic acid] | 0.006
COc1ccc(Oc2ccc(F)c3c2CC[C@H]3Oc2ccc3c(c2)OC[C@H]3CC(=O)O)nc1 [Example 44, {(S)-6-[(R)-7-Fluoro-4-(5-methoxy-pyrid-2-yloxy)-indan-1-yloxy]-2,3-dihydro-benzofuran-3-yl}-acetic acid] | 0.019
Cc1cc(Oc2ccc(F)c3c2CC[C@H]3Oc2ccc3c(c2)OC[C@H]3CC(=O)O)cc(C)c1C#N [Example 49, {(S)-6-[(R)-4-(4-Cyano-3,5-dimethyl-phenoxy)-7-fluoro-indan-1-yloxy]-2,3-dihydro-benzofuran-3-yl}-acetic acid] | 0.012
COc1ncc(Oc2ccc(F)c3c2CC[C@H]3Oc2ccc3c(c2)OC[C@H]3CC(=O)O)cn1 [Example 35, {(S)-6-[(R)-7-Fluoro-4-(2-methoxy-pyrimid-5-yloxy)-indan-1-yloxy]-2,3-dihydro-benzofuran-3-yl}-acetic acid] | 0.079
O=C(O)C[C@@H]1COc2cc(O[C@@H]3CCc4c(Oc5nc6ccccc6o5)ccc(F)c43)ccc21 [Example 19, {(S)-6-[(R)-4-Benzoxazol-2-yloxy-7-fluoro-indan-1-yloxy]-2,3-dihydro-benzofuran-3-yl}-acetic acid] | 0.013
Cc1nc2cc(Oc3ccc(F)c4c3CC[C@H]4Oc3ccc4c(c3)OC[C@H]4CC(=O)O)ccc2o1 [Example 55, {(S)-6-[(R)-7-Fluoro-4-(2-methyl-benzoxazol-5-yloxy)-indan-1-yloxy]-2,3-dihydro-benzofuran-3-yl}-acetic acid] | 0.006
N#Cc1ccc(Oc2ccc(F)c3c2CC[C@H]3Oc2ccc3c(c2)OC[C@H]3CC(=O)O)c(F)c1 [Example 22, {(S)-6-[(R)-4-(4-Cyano-2-fluoro-phenoxy)-7-fluoro-indan-1-yloxy]-2,3-dihydro-benzofuran-3-yl}-acetic acid] | 0.003
Cc1nc2cc(Oc3ccc(F)c4c3CC[C@H]4Oc3ccc4c(c3)OC[C@H]4CC(=O)O)ccc2s1 [Example 48, {(S)-6-[(R)-7-Fluoro-4-(2-methyl-benzothiazol-5-yloxy)-indan-1-yloxy]-2,3-dihydro-benzofuran-3-yl}-acetic acid] | 0.007
COc1cc(Oc2ccc(F)c3c2CC[C@H]3Oc2ccc3c(c2)OC[C@H]3CC(=O)O)ccn1 [Example 36, {(S)-6-[(R)-7-Fluoro-4-(2-methoxy-pyrid-4-yloxy)-indan-1-yloxy]-2,3-dihydro-benzofuran-3-yl}-acetic acid] | 0.004
Cc1cc2c(cnn2C)cc1Oc1ccc(F)c2c1CC[C@H]2Oc1ccc2c(c1)OC[C@H]2CC(=O)O [Example 47, {(S)-6-[(R)-7-Fluoro-4-(1,6-dimethyl-1H-indazol-5-yloxy)-indan-1-yloxy]-2,3-dihydro-benzofuran-3-yl}-acetic acid] | 0.026
O=C(O)C[C@@H]1COc2cc(O[C@@H]3CCc4c(Oc5ncc6ccccc6n5)ccc(F)c43)ccc21 [Example 43, {(S)-6-[(R)-7-Fluoro-4-(Quinazolin-2-yloxy)-indan-1-yloxy]-2,3-dihydro-benzofuran-3-yl}-acetic acid] | 0.034
COc1ccc(Oc2ccc(F)c3c2CC[C@H]3Oc2ccc3c(c2)OC[C@H]3CC(=O)O)cc1 [Example 3, {(S)-6-[(R)-7-Fluoro-4-(4-methoxy-phenoxy)-indan-1-yloxy]-2,3-dihydro-benzofuran-3-yl}-acetic acid] | 0.003
